From patent US10517889B2, “Modulators of SMAD7 expression” (Ionis Pharmaceuticals, Inc., priority 2017, dated 2019)
Strand notation (5' to 3'): a small letter for the sugar, then the base; units joined by * are phosphorothioate-linked, units joined directly phosphodiester-linked; [ ] holds rarer units or linkages, { } end groups; capitals alone tell only the bases. e = 2'-O-(2-methoxyethyl) (MOE); [5mC] = 5-methylcytosine; d = 2'-deoxy (DNA)

What follows are substances tested on human SMAD7 mRNA (assay: Antisense inhibition of human SMAD7 mRNA expression in Hep3B cells by 5-10-5 MOE gapmers, single concentration, electroporation, RT-PCR (Example 1, Study 1 and 2)). Settings: Study 2, electroporation with 15,000 nM antisense oligonucleotide, 5-10-5 MOE gapmers targeting SEQ ID NO: 1 and 2.
Assay type: cell-based
How it was run: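 Readout is percent SMAD7 mRNA inhibition versus untreated cells, measured by qRT-PCR (RTS5062) and corrected for total RNA by RIBOGREEN. Oligonucleotide, 5,000 nM or 15,000 nM, was delivered by electroporation into Hep3B cells at 20,000 per well. RNA was collected about 24 h later.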

Row | Substance | % Inhibition
1 | 771884 (antisense e[5mC]*eT*eG*e[5mC]*e[5mC]*dA*d[5mC]*d[5mC]*d[5mC]*dT*dG*dA*dG*dA*dG*eT*eG*eT*eA*eG) [compound 771884] | 3%
2 | 771886 (antisense eA*eA*e[5mC]*e[5mC]*eA*dG*dG*dT*dT*d[5mC]*d[5mC]*d[5mC]*dA*d[5mC]*dT*eG*eT*eT*eA*e[5mC]) [compound 771886] | 0%
3 | 771887 (antisense e[5mC]*eA*eG*e[5mC]*e[5mC]*dA*d[5mC]*dT*dG*d[5mC]*dT*dG*dT*d[5mC]*dT*eG*eA*eG*eG*eA) [compound 771887] | 14%
4 | 771892 (antisense e[5mC]*eT*eG*eA*eA*dG*dT*dT*dT*d[5mC]*dT*d[5mC]*d[5mC]*dT*d[5mC]*e[5mC]*e[5mC]*eA*eT*e[5mC]) [compound 771892] | 2%
5 | 771894 (antisense e[5mC]*eA*eA*eA*eA*dG*dG*dG*dA*dA*dA*dG*dG*dA*dG*eG*eT*eT*eT*eG) [compound 771894] | 17%
6 | 771895 (antisense eA*eT*eT*eT*eG*d[5mC]*dA*dA*d[5mC]*dA*dA*dT*dA*dA*dA*eA*e[5mC]*eA*eA*eA) [compound 771895] | 0%
7 | 771899 (antisense e[5mC]*e[5mC]*eT*eG*eA*dT*dT*dG*dT*d[5mC]*dT*d[5mC]*d[5mC]*dA*d[5mC]*eA*eT*e[5mC]*e[5mC]*e[5mC]) [compound 771899] | 47%
8 | 771903 (antisense eT*eG*e[5mC]*e[5mC]*eA*dA*d[5mC]*d[5mC]*d[5mC]*d[5mC]*dA*dG*dA*dG*dG*eT*eG*eA*eG*e[5mC]) [compound 771903] | 20%
9 | 771908 (antisense e[5mC]*eA*eA*eA*e[5mC]*dA*dT*d[5mC]*dA*d[5mC]*d[5mC]*dA*d[5mC]*dG*d[5mC]*e[5mC]*eT*e[5mC]*eG*e[5mC]) [compound 771908] | 26%
10 | 771910 (antisense eA*eG*eG*e[5mC]*eA*d[5mC]*dG*dG*d[5mC]*d[5mC]*dG*d[5mC]*d[5mC]*dT*d[5mC]*e[5mC]*eT*eG*e[5mC]*eA) [compound 771910] | 4%
11 | 771911 (antisense eA*eT*eG*eG*eT*d[5mC]*d[5mC]*dA*dG*d[5mC]*dA*dG*dA*dG*d[5mC]*eA*eG*eA*eA*eG) [compound 771911] | 20%
12 | 771916 (antisense e[5mC]*e[5mC]*eT*eT*e[5mC]*dT*dT*dA*dA*dA*dT*dT*dT*dT*dT*eA*eA*eT*eT*eT) [compound 771916] | 0%
13 | 771918 (antisense eA*eA*eG*eG*e[5mC]*d[5mC]*dA*d[5mC]*dA*dT*dT*dT*dT*dA*dG*eG*eT*eT*eA*eA) [compound 771918] | 12%
14 | 771919 (antisense e[5mC]*eA*eA*eT*eG*dG*d[5mC]*dA*d[5mC]*dA*dG*dG*dG*dT*dG*eA*e[5mC]*e[5mC]*eA*eG) [compound 771919] | 29%
15 | 771924 (antisense eT*e[5mC]*eG*e[5mC]*eT*dG*dA*dT*dA*dG*dT*dT*dA*dA*d[5mC]*e[5mC]*eT*e[5mC]*eT*eG) [compound 771924] | 9%
16 | 771926 (antisense eA*e[5mC]*eA*eA*eA*dG*dG*dT*d[5mC]*dT*dG*dT*dG*dT*dG*eG*eA*e[5mC]*eG*e[5mC]) [compound 771926] | 13%
17 | 771927 (antisense eG*e[5mC]*e[5mC]*e[5mC]*eA*d[5mC]*dA*dG*d[5mC]*d[5mC]*d[5mC]*dA*d[5mC]*dA*d[5mC]*eG*eA*eG*eT*e[5mC]) [compound 771927] | 0%

Same assay, conditions: electroporation with 15,000 nM antisense oligonucleotide (Study 2), 5-10-5 MOE gapmers targeting SEQ ID NO: 1 and 2

Row | Substance | % Inhibition of SMAD7 mRNA
18 | 771888 (antisense eT*e[5mC]*eG*e[5mC]*e[5mC]*dA*dT*dG*dG*dA*dG*dA*dA*dT*dG*eT*eA*eA*eT*eT) [compound 771888] | 21%
19 | 771896 (antisense eG*eG*eG*e[5mC]*e[5mC]*d[5mC]*d[5mC]*d[5mC]*dT*dT*d[5mC]*dT*dG*d[5mC]*d[5mC]*eT*eT*e[5mC]*eA*eT) [compound 771896] | 17%
20 | 771904 (antisense e[5mC]*e[5mC]*e[5mC]*eA*eA*d[5mC]*d[5mC]*d[5mC]*dA*dT*d[5mC]*dT*d[5mC]*d[5mC]*dA*e[5mC]*e[5mC]*eA*e[5mC]*e[5mC]) [compound 771904] | 0%
21 | 771912 (antisense eA*eT*eA*eT*eT*d[5mC]*d[5mC]*dT*d[5mC]*dT*dG*d[5mC]*d[5mC]*dA*dA*eA*eG*eT*e[5mC]*e[5mC]) [compound 771912] | 44%
22 | 771920 (antisense eT*eT*eA*eT*eT*dT*dA*dA*dT*dT*dA*d[5mC]*d[5mC]*d[5mC]*dT*eG*e[5mC]*eT*e[5mC]*eA) [compound 771920] | 33%
23 | 771928 (antisense e[5mC]*e[5mC]*e[5mC]*e[5mC]*eA*dT*dT*dG*d[5mC]*d[5mC]*dA*d[5mC]*dT*dA*d[5mC]*eA*eG*eA*eG*eA) [compound 771928] | 27%

Same assay, conditions: electroporation, 5,000 nM, approximately 24 hours, relative to untreated control cells, gapmers targeting SEQ ID NO: 1 and 2

Row | Substance | % inhibition of SMAD7 mRNA expression
24 | 771899 (antisense e[5mC]*e[5mC]*eT*eG*eA*dT*dT*dG*dT*d[5mC]*dT*d[5mC]*d[5mC]*dA*d[5mC]*eA*eT*e[5mC]*e[5mC]*e[5mC]) [compound 771899] | 57%

Same assay, conditions: electroporation, 15,000 nM antisense oligonucleotide (Study 2), 5-10-5 MOE gapmers targeting SEQ ID NO: 1 and 2

Row | Substance | % inhibition of SMAD7 mRNA expression
25 | 771888 (antisense eT*e[5mC]*eG*e[5mC]*e[5mC]*dA*dT*dG*dG*dA*dG*dA*dA*dT*dG*eT*eA*eA*eT*eT) [compound 771888] | 0%
26 | 771889 (antisense eT*eA*eA*eG*eA*dG*d[5mC]*dA*dT*dT*dT*dA*dT*d[5mC]*dT*e[5mC]*eG*e[5mC]*e[5mC]*eA) [compound 771889] | 29%
27 | 771890 (antisense eA*eG*eT*e[5mC]*eT*dG*dA*dA*dG*d[5mC]*d[5mC]*d[5mC]*d[5mC]*d[5mC]*dA*eA*e[5mC]*e[5mC]*eT*eG) [compound 771890] | 14%
28 | 771896 (antisense eG*eG*eG*e[5mC]*e[5mC]*d[5mC]*d[5mC]*d[5mC]*dT*dT*d[5mC]*dT*dG*d[5mC]*d[5mC]*eT*eT*e[5mC]*eA*eT) [compound 771896] | 0%
29 | 771897 (antisense e[5mC]*eT*e[5mC]*eT*e[5mC]*dA*dG*dG*dG*dT*d[5mC]*dT*d[5mC]*dA*dG*eT*eT*eT*eG*eA) [compound 771897] | 44%
30 | 771898 (antisense eG*eG*eT*eG*eT*dG*dA*dG*d[5mC]*dT*dG*dT*dG*dG*dA*e[5mC]*eA*e[5mC]*eA*eG) [compound 771898] | 27%
31 | 771904 (antisense e[5mC]*e[5mC]*e[5mC]*eA*eA*d[5mC]*d[5mC]*d[5mC]*dA*dT*d[5mC]*dT*d[5mC]*d[5mC]*dA*e[5mC]*e[5mC]*eA*e[5mC]*e[5mC]) [compound 771904] | 0%
32 | 771905 (antisense eT*eA*eG*eG*e[5mC]*dG*dA*dA*dT*d[5mC]*d[5mC]*d[5mC]*dT*d[5mC]*d[5mC]*e[5mC]*e[5mC]*e[5mC]*eA*eA) [compound 771905] | 0%
33 | 771906 (antisense eA*e[5mC]*e[5mC]*e[5mC]*eT*dT*dG*d[5mC]*dT*dG*dG*dT*d[5mC]*dT*d[5mC]*eT*eT*eG*eT*eT) [compound 771906] | 0%
34 | 771912 (antisense eA*eT*eA*eT*eT*d[5mC]*d[5mC]*dT*d[5mC]*dT*dG*d[5mC]*d[5mC]*dA*dA*eA*eG*eT*e[5mC]*e[5mC]) [compound 771912] | 19%
35 | 771913 (antisense eA*eA*eA*eA*eA*dA*dG*d[5mC]*d[5mC]*dA*dG*dT*dA*dA*dA*eG*eA*e[5mC]*eA*eT) [compound 771913] | 11%
36 | 771914 (antisense eA*eT*eT*eT*eA*dG*dG*dA*dA*d[5mC]*dA*dA*dG*dG*dG*e[5mC]*eA*eA*eG*e[5mC]) [compound 771914] | 34%
37 | 771920 (antisense eT*eT*eA*eT*eT*dT*dA*dA*dT*dT*dA*d[5mC]*d[5mC]*d[5mC]*dT*eG*e[5mC]*eT*e[5mC]*eA) [compound 771920] | 13%
38 | 771921 (antisense eT*e[5mC]*e[5mC]*eT*e[5mC]*d[5mC]*d[5mC]*dT*dT*dT*dA*dA*dA*dG*dG*eG*eA*eA*eG*eG) [compound 771921] | 14%
39 | 771922 (antisense eA*eA*eA*eT*eT*d[5mC]*d[5mC]*dT*dT*dT*dA*dA*dG*dG*dT*eG*eT*eT*eG*e[5mC]) [compound 771922] | 29%
40 | 771928 (antisense e[5mC]*e[5mC]*e[5mC]*e[5mC]*eA*dT*dT*dG*d[5mC]*d[5mC]*dA*d[5mC]*dT*dA*d[5mC]*eA*eG*eA*eG*eA) [compound 771928] | 0%
41 | 771929 (antisense e[5mC]*eT*eT*eT*e[5mC]*d[5mC]*dA*dG*d[5mC]*dA*dA*dA*dA*d[5mC]*d[5mC]*eA*eT*eT*e[5mC]*eG) [compound 771929] | 0%
42 | 771930 (antisense e[5mC]*e[5mC]*eA*eG*e[5mC]*d[5mC]*d[5mC]*dA*dG*dA*dA*dA*dA*dA*d[5mC]*eT*eG*e[5mC]*eA*eA) [compound 771930] | 26%

Same assay, conditions: electroporation, 15,000 nM, approximately 24 hours, relative to untreated control cells, gapmers targeting SEQ ID NO: 1 and 2

Row | Substance | % inhibition of SMAD7 mRNA expression
43 | 771893 (antisense eG*eT*e[5mC]*eA*eT*d[5mC]*d[5mC]*dG*dT*d[5mC]*d[5mC]*dA*d[5mC]*dT*dG*eT*e[5mC]*eT*eG*e[5mC]) [compound 771893] | 35%
44 | 771901 (antisense eA*eA*eA*eA*eT*dG*d[5mC]*d[5mC]*d[5mC]*dA*d[5mC]*d[5mC]*dA*dG*dT*e[5mC]*eT*eT*e[5mC]*e[5mC]) [compound 771901] | 41%
45 | 771909 (antisense e[5mC]*eA*eG*eG*e[5mC]*dT*d[5mC]*d[5mC]*d[5mC]*dT*dG*dT*dG*d[5mC]*d[5mC]*eA*eA*eT*e[5mC]*eA) [compound 771909] | 52%
46 | 771917 (antisense e[5mC]*e[5mC]*eA*eG*eA*d[5mC]*d[5mC]*d[5mC]*d[5mC]*dT*dT*d[5mC]*dT*dT*dA*eA*eA*eT*eT*eT) [compound 771917] | 22%
47 | 771925 (antisense eG*eG*e[5mC]*e[5mC]*eT*d[5mC]*dT*d[5mC]*dG*d[5mC]*dT*dG*dA*dT*dA*eG*eT*eT*eA*eA) [compound 771925] | 10%
